The values below come from patent publication US5133908A, “Process for the preparation of dispersible colloidal systems of a substance in the form of nanoparticles” (Centre National de la Recherche Scientifique (CNRS), priority 1986, dated 1992).

Each structure is given as a SMILES string.

Data set [1] concerns bovine serum albumin (BSA) nanoparticles. Briefly: level of binding of active principle to BSA nanoparticles, ultracentrifugation. Particulars: for level of binding of the sodium salicylate to the nanoparticles: of the amount used. The class given is physicochemical. The protocol:
(§1) Increasing amounts (from 0.25 g to 2.50 g) of sodium salicylate are added to nanoparticles prepared according to example 1 (HSA) or according to example 5 (BSA). The level of binding of the sodium salicylate to the nanoparticles, measured after ultracentrifugation, is 60% of the amount used, irrespective of the amount of active principle added.
(§2) The procedure uses as in example 1 (1 g of HSA) or of example 5 (1 g of BSA), but carried out in the presence of 0.50 g of sodium salicylate dissolved in phase 1. The mean size of the nanoparticles is 200 nm with a mean dispersion index of 0.5. The level of binding of the sodium salicylate to the nanoparticles, measured after ultracentrifugation, is 60% of the amount used.
(§3) 50 mg of doxorubicin hydrochloride are added to nanoparticles prepared according to example 1 (HSA) or according to example 5 (BSA). The level of binding of doxorubicin to the nanoparticles, measured after ultracentrifugation, is 90% of the quantity used.

Data set [2] has as its system human serum albumin (HSA) nanoparticles. Briefly: level of binding of active principle to HSA nanoparticles, ultracentrifugation. It is filed as physicochemical. Particulars: for level of binding of the sodium salicylate to the nanoparticles: of the amount used. As for the experimental part:
as §1, §2, §3

`COc1cccc2c1C(=O)c1c(O)c3c(c(O)c1C2=O)C[C@@](O)(C(=O)CO)C[C@@H]3O[C@H]1C[C@H](N)[C@H](O)[C@H](C)O1` [doxorubicin]: the “level of binding of doxorubicin to the nanoparticles” value is on record as 90% in data set [1] (BSA nanoparticles, of the quantity used, 50 mg doxorubicin hydrochloride added) and 90% in data set [2] (HSA nanoparticles, of the quantity used, 50 mg doxorubicin hydrochloride added).

Turning to `O=C([O-])c1ccccc1O.[Na+]` [sodium salicylate], the “level of binding of the sodium salicylate to the nanoparticles” value in data set [1] (BSA nanoparticles, 0.25 g to 2.50 g added to formed nanoparticles, irrespective of amount) was 60%; in data set [1] (BSA, 0.50 g dissolved in phase 1), 60%; in data set [2] (HSA nanoparticles, 0.25 g to 2.50 g added to formed nanoparticles, irrespective of amount), 60%; in data set [2] (HSA, 0.50 g dissolved in phase 1), 60%.
